Test results as given in patent US20220226265A1, “METHODS OF CONTROLLING MYOCARDIAL BLOOD FLOW” (UNIVERSITY OF LOUISVILLE RESEARCH FOUNDATION, INC., priority 2021, published 2022).

Test system: wild type and Kvβ-null mice
Test: Echocardiographic cardiac function during intravenous norepinephrine infusion
Format: in vivo, mouse
Excerpt: In vivo measurements of cardiac function and myocardial blood flow: Mice were anesthetized with 3% isoflurane and supplemental O2, administered (1 L·min^−1) in a small induction chamber. After induction, the mice were placed on a controlled heating table in a supine position. Anesthesia was maintained throughout the procedure by delivery of 1-2% isoflurane and supplemental O2 (0.5 L·min^−1). The extremities were secured to the surgical table by tape and a lubricated probe was inserted rectally to monitor body temperature. The chest, neck, and hind limb hair were then removed using a depilatory agent, the skin was rinsed with warm water, and the neck area was disinfected with 70% ethanol/betadine and an incision (10-15 mm) was made at the right side of the neck. For infusion of contrast agent and drugs, the jugular vein was isolated using blunt forceps and catheterized with sterilized PE-50 polyethylene tubing (pre-filled with heparinized saline; 50 U·ml^−1). The jugular vein catheter was then secured in place with two sutures. For continuous measurement of arterial blood pressure, a small incision was made on the hind limb and the femoral artery was isolated and cannulated with a 1.2 F pressure catheter (SciSense, Transonic Systems, Inc., Ithaca, N.Y., USA) connected to a PowerLab data acquisition system (ADInstruments, Colorado Springs, Colo., USA) through a SP200 pressure interface unit designed to measure arterial blood pressure and heart rate. After cannulation, the pressure catheter was advanced 10 mm into the abdominal aorta.
Ultrasound gel was centrifuged in a 60 mL syringe (1500×g, 10 min) to remove air bubbles, warmed to 37° C., and applied to the chest. Cardiac function was measured by M-mode transthoracic echocardiographic imaging of the parasternal short axis view, mid-papillary level using a Vevo 2100 high resolution echocardiography imaging system (FujiFilm VisualSonics, Toronto, ON, Canada). Contrast echocardiography was performed by using Siemens ultrasound imaging system (Sequoia Acuson C512; Siemens Medical Systems USA Inc., Mountain View, Calif.) with a high-frequency linear-array probe (15L8) held in place by a 3D railing system. For myocardial contrast echocardiography (MCE), we administered lipid-shelled microbubbles, which were freshly prepared by sonication of a decafluorobutane gas-saturated aqueous suspension of distearoylphosphatidylcholine (2 mg/mL) and polyoxyethylene-40-stearate (1 mg/mL). The contrast agent was intravenously infused via the jugular vein catheter at a rate of ˜5×10^5 microbubbles·min-1 (20 μl·min^−1) and MCE was performed by administering a multi-pulse contrast-specific pulse sequence to detect non-linear microbubble contrast signal at low mechanical index (MI=0.18-0.25). Data were acquired during and after a 1.9 MI pulse sequence to destruct microbubbles within the acoustic field, followed by imaging of replenished contrast signal.
Measurements of cardiac function, myocardial perfusion, and arterial blood pressure were performed at baseline, after administration of hexamethonium (5 mg·kg^−1, i.v.), and following successive doses of norepinephrine (0.5, 1.0, 2.5, and 5.0 μg·kg^−1·min^−1; 3 min duration each dose, followed by 3-5 min washout). […] All data analyses and calculations of cardiac workload (double product of mean arterial pressure and heart rate), cardiac function, myocardial blood flow, and mean arterial pressure were performed offline. For pressure measurements, we used Lab Chart 8 software (ADInstruments, Colorado Springs, Colo., USA). Left ventricular volume at end diastole (LVEDV) and end systole (LVESV), as well left ventricular internal diameter at end diastole (LVID,d) and end systole (LVID,s) were measured at steady state after drug infusions. […]

[1] = NE 0.5 μg/kg·min−1 i.v., Kvβ1.1−/− mice
[2] = NE 0.5 μg/kg·min−1 i.v., Kvβ2−/− mice
[3] = NE 0.5 μg/kg·min−1 i.v., SM22α-rtTA mice
[4] = NE 0.5 μg/kg·min−1 i.v., SM22α-rtTA:TRE-Kvβ1 mice
[5] = NE 0.5 μg/kg·min−1 i.v., Wild type (129SvEv) mice
[6] = NE 0.5 μg/kg·min−1 i.v., Wild type (C57B16N) mice
[7] = NE 1 μg/kg·min−1 i.v., Kvβ1.1−/− mice
[8] = NE 1 μg/kg·min−1 i.v., Kvβ2−/− mice
[9] = NE 1 μg/kg·min−1 i.v., SM22α-rtTA mice
[10] = NE 1 μg/kg·min−1 i.v., SM22α-rtTA:TRE-Kvβ1 mice
[11] = NE 1 μg/kg·min−1 i.v., Wild type (129SvEv) mice
[12] = NE 1 μg/kg·min−1 i.v., Wild type (C57B16N) mice

NC[C@H](O)c1ccc(O)c(O)c1 [norepinephrine]
EDV (left ventricular end diastolic volume) [1]: 53.5 ± 4.9 µL
EF (ejection fraction) [1]: 61.4 ± 4.2%
ESV (left ventricular end systolic volume) [1]: 21.3 ± 3.9 µL
FS (fractional shortening) [1]: 32.5 ± 2.8%
SV (stroke volume) [1]: 32.2 ± 1.8 µL
EDV (left ventricular end diastolic volume) [2]: 48.3 ± 2.7 µL
EF (ejection fraction) [2]: 71.9 ± 3.3%
ESV (left ventricular end systolic volume) [2]: 13.6 ± 1.6 µL
FS (fractional shortening) [2]: 40.7 ± 2.8%
SV (stroke volume) [2]: 34.7 ± 2.4 µL
EDV (left ventricular end diastolic volume) [3]: 43.6 ± 2.9 µL
EF (ejection fraction) [3]: 82.3 ± 3.3%
ESV (left ventricular end systolic volume) [3]: 8.1 ± 2.0 µL
FS (fractional shortening) [3]: 50.9 ± 3.6%
SV (stroke volume) [3]: 35.4 ± 1.6 µL
EDV (left ventricular end diastolic volume) [4]: 45.9 ± 3.8 µL
EF (ejection fraction) [4]: 62.7 ± 6.0%
ESV (left ventricular end systolic volume) [4]: 17.7 ± 3.6 µL
FS (fractional shortening) [4]: 33.9 ± 4.1%
SV (stroke volume) [4]: 28.2 ± 2.7 µL
EDV (left ventricular end diastolic volume) [5]: 50.5 ± 7.8 µL
EF (ejection fraction) [5]: 63.5 ± 2.5%
ESV (left ventricular end systolic volume) [5]: 19.4 ± 3.7 µL
FS (fractional shortening) [5]: 34.2 ± 1.9%
SV (stroke volume) [5]: 31.2 ± 4.2 µL
EDV (left ventricular end diastolic volume) [6]: 57.8 ± 2.3 µL
EF (ejection fraction) [6]: 71.64 ± 2.2%
ESV (left ventricular end systolic volume) [6]: 16.37 ± 1.4 µL
FS (fractional shortening) [6]: 40.48 ± 2.0%
SV (stroke volume) [6]: 41.46 ± 2.3 µL
EDV (left ventricular end diastolic volume) [7]: 47.6 ± 8.1 µL
EF (ejection fraction) [7]: 70.9 ± 3.1%
ESV (left ventricular end systolic volume) [7]: 14.1 ± 3.4 µL
FS (fractional shortening) [7]: 40.1 ± 2.4%
SV (stroke volume) [7]: 33.5 ± 5.2 µL
EDV (left ventricular end diastolic volume) [8]: 48.7 ± 4.6 µL
EF (ejection fraction) [8]: 73.1 ± 1.8%
ESV (left ventricular end systolic volume) [8]: 13.3 ± 1.8 µL
FS (fractional shortening) [8]: 41.4 ± 1.6%
SV (stroke volume) [8]: 42.7 ± 8.2 µL
EDV (left ventricular end diastolic volume) [9]: 49.4 ± 2.9 µL
EF (ejection fraction) [9]: 80.6 ± 4.2%
ESV (left ventricular end systolic volume) [9]: 10.0 ± 2.6 µL
FS (fractional shortening) [9]: 49.6 ± 4.3%
SV (stroke volume) [9]: 39.4 ± 1.8 µL
EDV (left ventricular end diastolic volume) [10]: 46.9 ± 4.9 µL
EF (ejection fraction) [10]: 74.2 ± 3.9%
ESV (left ventricular end systolic volume) [10]: 12.7 ± 3.2 µL
FS (fractional shortening) [10]: 42.7 ± 3.3%
SV (stroke volume) [10]: 34.2 ± 2.0 µL
EDV (left ventricular end diastolic volume) [11]: 46.7 ± 7.4 µL
EF (ejection fraction) [11]: 70.7 ± 5.3%
ESV (left ventricular end systolic volume) [11]: 14.7 ± 4.3 µL
FS (fractional shortening) [11]: 40.1 ± 4.6%
SV (stroke volume) [11]: 32.0 ± 3.7 µL
EDV (left ventricular end diastolic volume) [12]: 61.6 ± 3.2 µL
EF (ejection fraction) [12]: 72.40 ± 1.2%
ESV (left ventricular end systolic volume) [12]: 17.12 ± 1.3 µL
FS (fractional shortening) [12]: 40.97 ± 1.0%
SV (stroke volume) [12]: 44.52 ± 2.3 µL
EDV (left ventricular end diastolic volume) (NE 2.5 μg/kg·min−1 i.v., Kvβ1.1−/− mice): 41.5 ± 8.8 µL
